From PMC10893357 (Viruses, 2024)

How the values were obtained:
Type in all cases: cell-based
[1] = system: SARS-CoV-2 Omicron, XBB 1.5 hCoV-19/Russia/SAK-SRC-8527/2023; assay: Antiviral CPE reduction assay in Vero E6 cells, Omicron XBB.1.5; conditions: Severe acute respiratory syndrome coronavirus 2, Vero C1008, 96 h
[2] = system: SARS-CoV-2 Omicron lineage BQ.1.1 hCoV-19/Russia/TOM-SRC-8663/2023; assay: Antiviral CPE reduction assay in Vero E6 cells, Omicron BQ.1.1; conditions: Severe acute respiratory syndrome coronavirus 2, Vero C1008, 96 h
[3] = system: SARS-CoV-2 Omicron, BA 5.2 hCov-19/Russia/Moscow-49415/2022; assay: Antiviral CPE reduction assay in Vero E6 cells, Omicron BA.5.2; conditions: Severe acute respiratory syndrome coronavirus 2, Vero C1008, 96 h
[4] = system: SARS-CoV-2 Omicron, BA.1 hCoV-19/Russia/Moscow171619-031221/2021; assay: Antiviral CPE reduction assay in Vero E6 cells, Omicron BA.1; conditions: Severe acute respiratory syndrome coronavirus 2, Vero C1008, 96 h
[5] = system: SARS-CoV-2 Delta, lineage B.1.617.2 hCoV-19/Russia/PSK-2804/2021; assay: Antiviral CPE reduction assay in Vero E6 cells, Delta; conditions: Severe acute respiratory syndrome coronavirus 2, Vero C1008, 96 h
[6] = system: SARS-CoV-2 Wuhan, lineage B.1.1 hCoV-19/Russia/Omsk202118_1707/2020; assay: Antiviral CPE reduction assay in Vero E6 cells, Wuhan; conditions: Severe acute respiratory syndrome coronavirus 2, Vero C1008, 96 h
[7] = Cytotoxicity (MTT) in Vero E6 cells; conditions: African green monkey

Compound | EC50 [1] [µM] | EC50 [2] [µM] | EC50 [3] [µM] | EC50 [4] [µM] | EC50 [5] [µM] | EC50 [6] [µM] | CC50 at 4 days [7] [µM]
CC(=O)C1=C(O)C=C2Oc3c(-c4csc(N/N=C/c5ccc(Br)s5)n4)c(O)c(C)c(O)c3[C@@]2(C)C1=O [(+)-3e] | 22.4 ± 2 | 32.2 ± 2.6 | 20 ± 1.6 | 20.7 ± 1.6 | 41.5 ± 3.1 | 25.3 ± 2.2 | 350 ± 21.2
CCC(CC)COC(=O)[C@H](C)N[P@](=O)(OC[C@H]1O[C@@](C#N)(c2ccc3c(N)ncnn23)[C@H](O)[C@@H]1O)Oc1ccccc1 [Remdesivir, reference compound] | 2.65 ± 0.6 | 3.13 ± 0.9 | 4.45 ± 1 | 2 ± 0.13 | 2.1 ± 0.16 | 3.8 ± 0.42 | 711 ± 21.2
